Results: US8921108B2, “Differentiated human liver cell cultures and their use in bioartificial liver systems” (Academisch Ziekenhuis Bij de Universiteit van Amsterdam, priority 2009, dated 2014)
Marks after values point to notes of the source that are not given here.

Key:
HepaRG cells [1] = assay: AMC-BAL bioreactor functionality test of HepaRG cells; format: cell-based, human
Method: One liter of HepaRG medium containing 75 ml of viable HepaRG cells is injected under sterile conditions into an AMC-BAL bioreactor (cf. Flendrig et al.^15) through three loading ports. […] To ensure optimal cell attachment and an even cell distribution, bioreactors are rotated 340° (back and forth) along the longitudinal axis at 1 revolution/min. After this attachment period, dead and unattached cells are removed by flushing 500 mL of fresh culture medium through the bioreactor at 150 mL/min. From then on bioreactors are perfused with 1.5 L recirculating culture medium at 150 mL/min. The medium is refreshed every three days. The bioreactors are cultured in HepaRG medium for 14 days. […] At least one week prior to clinical application, 1 mM CG (Sigma) is added to the media to enhance the urea cycle. The bioreactors are tested every culture week and prior to clinical application for sterility and function. Laboratory model AMC-BAL bioreactors, e.g. of a different scale, are produced in essentially the same way as described above. These laboratory model bioreactors are used e.g. for clinical testing in animal models, such as rats with acute liver failure.
Thirdly, the culture medium is replaced by 1500 ml test medium. […] At first 700 ml test medium is flushed through the bioreactor followed by recirculation of 800 ml test medium during 24 hours. […] From the changes in concentration an activity per hour and per billion cells seeded is calculated.

HepaRG cells [2] = assay: RT-PCR mRNA levels of hepatic genes in HepaRG cells from AMC-BAL bioreactor; format: cell-based, human
[3] = Bioreactor −DMSO +CG versus Monolayer + DMSO − CG
[4] = Bioreactor −DMSO +CG versus Monolayer − DMSO − CG
[5] = HepaRG in AMC-BAL bioreactor, 13 days, −DMSO, 1 mM CG

% improvement by bioreactor: CYP2B6 mRNA level (HepaRG cells [2]; [3]): 49% | % improvement by bioreactor: CYP3A4 mRNA level (HepaRG cells [2]; [3]): 148% | % improvement by bioreactor: PXR mRNA level (HepaRG cells [2]; [3]): 633% | % improvement by bioreactor: CYP2B6 mRNA level (HepaRG cells [2]; [4]): 863* % | % improvement by bioreactor: CYP3A4 mRNA level (HepaRG cells [2]; [4]): 1063* % | % improvement by bioreactor: PXR mRNA level (HepaRG cells [2]; [4]): 437% | CYP2B6 mRNA level (HepaRG cells [2]; [5]): 30.2 ± 15.9 % of in vivo | CYP3A4 mRNA level (HepaRG cells [2]; [5]): 102 ± 49.4 % of in vivo | PXR mRNA level (HepaRG cells [2]; [5]): 82.5 ± 68.9 % of in vivo
SMILES: NC(=O)N[C@@H](CCC(=O)O)C(=O)O [CG, carbamoyl glutamate]
% improvement by bioreactor: 15N urea enrichment (HepaRG cells [1]; [3]): 157* % | % improvement by bioreactor: Ammonia elimination (HepaRG cells [1]; [3]): 134% | % improvement by bioreactor: ApoA1 synthesis (HepaRG cells [1]; [3]): 113% | % improvement by bioreactor: Lactate consumption (HepaRG cells [1]; [3]): conversion* | % improvement by bioreactor: Urea production (HepaRG cells [1]; [3]): 187* % | % improvement by bioreactor: 15N urea enrichment (HepaRG cells [1]; [4]): 418* % | % improvement by bioreactor: Ammonia elimination (HepaRG cells [1]; [4]): 199* % | % improvement by bioreactor: ApoA1 synthesis (HepaRG cells [1]; [4]): 154% | % improvement by bioreactor: Lactate consumption (HepaRG cells [1]; [4]): conversion* | % improvement by bioreactor: Urea production (HepaRG cells [1]; [4]): 262* % | 15N urea enrichment (HepaRG cells [1]; [5]): 25.1 ± 3.7 % of total urea | Ammonia elimination (HepaRG cells [1]; [5]): 143 ± 105 nmol/h/mg protein | ApoA1 synthesis (HepaRG cells [1]; [5]): 1.2 ± 0.9 ug/h/mg protein | Lactate consumption (HepaRG cells [1]; [5]): 42.1 ± 14.7 nmol/h/mg protein | Urea production (HepaRG cells [1]; [5]): 13.1 ± 1.2 nmol/h/mg protein | % improvement by bioreactor: Alb mRNA level (HepaRG cells [2]; [3]): 313* % | % improvement by bioreactor: ArgI mRNA level (HepaRG cells [2]; [3]): 460* % | % improvement by bioreactor: ArgII mRNA level (HepaRG cells [2]; [3]): 42% | % improvement by bioreactor: CPS mRNA level (HepaRG cells [2]; [3]): 4000* % | % improvement by bioreactor: GS mRNA level (HepaRG cells [2]; [3]): 714% | % improvement by bioreactor: HNF4 mRNA level (HepaRG cells [2]; [3]): 198* % | % improvement by bioreactor: Alb mRNA level (HepaRG cells [2]; [4]): 109% | % improvement by bioreactor: ArgI mRNA level (HepaRG cells [2]; [4]): 155% | % improvement by bioreactor: ArgII mRNA level (HepaRG cells [2]; [4]): 54% | % improvement by bioreactor: CPS mRNA level (HepaRG cells [2]; [4]): 145% | % improvement by bioreactor: GS mRNA level (HepaRG cells [2]; [4]): 300* % | % improvement by bioreactor: HNF4 mRNA level (HepaRG cells [2]; [4]): 187* % | Alb mRNA level (HepaRG cells [2]; [5]): 72.1 ± 26.0 % of in vivo | ArgI mRNA level (HepaRG cells [2]; [5]): 22.9 ± 10.4 % of in vivo | ArgII mRNA level (HepaRG cells [2]; [5]): 305 ± 143 % of in vivo | CPS mRNA level (HepaRG cells [2]; [5]): 44.1 ± 32.2 % of in vivo | GS mRNA level (HepaRG cells [2]; [5]): 643 ± 395 % of in vivo | HNF4 mRNA level (HepaRG cells [2]; [5]): 386 ± 216 % of in vivo
